Measurements taken from ChEMBL document CHEMBL1201862, “PubChem BioAssay data set” (2004).
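Each compound was tested at five concentrations against cells in 96-well plates for 48 hours. Here, GI50 denotes the concentration required for 50% inhibition of growth.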 Activity calls are given as the source filed them. Rule as the data show it: active = GI50 up to about 1.1 µM and inactive = higher.

Key:
Experiment in all cases: DTP human tumour cell line panel, 48 h
TK-10 = system: TK-10
A498 = system: A498
UACC-62 = system: UACC-62
CCRF-CEM = system: CCRF-CEM
RXF 393 = system: RXF 393
SK-MEL-5 = system: SK-MEL-5
NCI-H522 = system: NCI-H522
MCF7 = system: MCF7
SF-268 = system: SF-268
SNB-75 = system: SNB-75
SF-539 = system: SF-539
IGROV-1 = system: IGROV-1
SK-MEL-2 = system: SK-MEL-2
U-251 = system: U-251
RPMI-8226 = system: RPMI-8226
SW-620 = system: SW-620
SNB-19 = system: SNB-19
SK-OV-3 = system: SK-OV-3
MDA-N = system: MDA-N
A549 = system: A549
SF-295 = system: SF-295
HCT-116 = system: HCT-116
MDA-MB-231 = system: MDA-MB-231
EKVX = system: EKVX
OVCAR-8 = system: OVCAR-8
MDA-MB-435 = system: MDA-MB-435
NCI-H226 = system: NCI-H226
ACHN = system: ACHN
HOP-92 = system: HOP-92
Hs-578T = system: Hs-578T
SK-MEL-28 = system: SK-MEL-28
HCT-15 = system: HCT-15
M14 = system: M14
CAKI-1 = system: CAKI-1
SN12C = system: SN12C
OVCAR-5 = system: OVCAR-5
BT-549 = system: BT-549
HOP-62 = system: HOP-62
K562 = system: K562
KM12 = system: KM12
HT-29 = system: HT-29
Malme-3M = system: Malme-3M
OVCAR-4 = system: OVCAR-4
LOX IMVI = system: LOX IMVI
MOLT-4 = system: MOLT-4
COLO 205 = system: COLO 205
786-0 = system: 786-0
NCI/ADR-RES = system: NCI/ADR-RES
HCC 2998 = system: HCC 2998
UACC-257 = system: UACC-257
PC-3 = system: PC-3
NCI-H460 = system: NCI-H460
OVCAR-3 = system: OVCAR-3
UO-31 = system: UO-31
NCI-H23 = system: NCI-H23
DU-145 = system: DU-145
SR = system: SR
HL-60 = system: HL-60

## CN(C)c1ccc(-c2c(C#N)c(-c3ccccc3)n(NS(=O)(=O)c3ccccc3)c(=O)c2C#N)cc1
TK-10
  GI50: 79.6 µM (inactive)
A498
  GI50: 57 µM (inactive)
UACC-62
  GI50: 43.3 µM (inactive)
CCRF-CEM
  GI50: 26.5 µM (inactive)
RXF 393
  GI50: 44 µM (inactive)
SK-MEL-5
  GI50: 20.4 µM (inactive)
NCI-H522
  GI50: 58.3 µM (inactive)
MCF7
  GI50: 40.7 µM (inactive)
SF-268
  GI50: 56 µM (inactive)
SNB-75
  GI50: 48.5 µM (inactive)
SF-539
  GI50: 33.3 µM (inactive)
IGROV-1
  GI50: 40.8 µM (inactive)
SK-MEL-2
  GI50: 41.6 µM (inactive)
U-251
  GI50: 50.7 µM (inactive)
RPMI-8226
  GI50: 21.3 µM (inactive)
SW-620
  GI50: 43.3 µM (inactive)
SNB-19
  GI50: 24.8 µM (inactive)
SK-OV-3
  GI50: 67.3 µM (inactive)
MDA-N
  GI50: 68.1 µM (inactive)
A549
  GI50: 42.9 µM (inactive)
SF-295
  GI50: 41.7 µM (inactive)
HCT-116
  GI50: 34.1 µM (inactive)
MDA-MB-231
  GI50: 88.1 µM (inactive)
EKVX
  GI50: 67.5 µM (inactive)
OVCAR-8
  GI50: 31.4 µM (inactive)
MDA-MB-435
  GI50: 71.4 µM (inactive)
NCI-H226
  GI50: > 100 µM (inactive)
ACHN
  GI50: 45.8 µM (inactive)
HOP-92
  GI50: 28.9 µM (inactive)
Hs-578T
  GI50: 23.1 µM (inactive)
SK-MEL-28
  GI50: 70.8 µM (inactive)
HCT-15
  GI50: 77.3 µM
M14
  GI50: 47.4 µM (inactive)
CAKI-1
  GI50: 45.7 µM (inactive)
SN12C
  GI50: 68.9 µM (inactive)
OVCAR-5
  GI50: > 100 µM (inactive)
BT-549
  GI50: 56.9 µM (inactive)
HOP-62
  GI50: 38.8 µM (inactive)
K562
  GI50: 49.1 µM (inactive)
KM12
  GI50: 65.6 µM (inactive)
HT-29
  GI50: 76.7 µM (inactive)
Malme-3M
  GI50: 40.1 µM (inactive)
OVCAR-4
  GI50: > 100 µM (inactive)
LOX IMVI
  GI50: 37.4 µM (inactive)
MOLT-4
  GI50: 20.7 µM (inactive)
COLO 205
  GI50: > 100 µM (inactive)
786-0
  GI50: 69.5 µM (inactive)
NCI/ADR-RES
  GI50: 57.3 µM (inactive)
HCC 2998
  GI50: 30.1 µM (inactive)
UACC-257
  GI50: > 100 µM (inactive)
PC-3
  GI50: 26.9 µM (inactive)
NCI-H460
  GI50: 54.3 µM (inactive)

## CCOC(=O)CC1c2ccc(O)cc2OC(=O)C1c1ccc(N)cc1 (configuration not stated)
TK-10
  GI50: > 100 µM (inactive)
A498
  GI50: > 100 µM (inactive)
UACC-62
  GI50: > 100 µM (inactive)
OVCAR-3
  GI50: > 100 µM (inactive)
UO-31
  GI50: > 100 µM (inactive)
CCRF-CEM
  GI50: > 100 µM (inactive)
RXF 393
  GI50: > 100 µM (inactive)
SK-MEL-5
  GI50: > 100 µM (inactive)
NCI-H522
  GI50: 86.7 µM (inactive)
NCI-H23
  GI50: > 100 µM (inactive)
MCF7
  GI50: > 100 µM (inactive)
SF-268
  GI50: 98.4 µM (inactive)
SNB-75
  GI50: 84.9 µM (inactive)
SF-539
  GI50: 56.6 µM (inactive)
IGROV-1
  GI50: > 100 µM (inactive)
SK-MEL-2
  GI50: > 100 µM (inactive)
U-251
  GI50: > 100 µM (inactive)
RPMI-8226
  GI50: > 100 µM (inactive)
SW-620
  GI50: > 100 µM (inactive)
SNB-19
  GI50: > 100 µM (inactive)
SK-OV-3
  GI50: > 100 µM (inactive)
MDA-N
  GI50: > 100 µM (inactive)
A549
  GI50: > 100 µM (inactive)
SF-295
  GI50: > 100 µM (inactive)
HCT-116
  GI50: > 100 µM (inactive)
MDA-MB-231
  GI50: > 100 µM (inactive)
DU-145
  GI50: > 100 µM (inactive)
EKVX
  GI50: > 100 µM (inactive)
OVCAR-8
  GI50: 95.9 µM (inactive)
MDA-MB-435
  GI50: > 100 µM (inactive)
NCI-H226
  GI50: > 100 µM (inactive)
ACHN
  GI50: > 100 µM (inactive)
Hs-578T
  GI50: 66.1 µM (inactive)
SK-MEL-28
  GI50: > 100 µM (inactive)
HCT-15
  GI50: > 100 µM
M14
  GI50: > 100 µM (inactive)
CAKI-1
  GI50: > 100 µM (inactive)
SN12C
  GI50: > 100 µM (inactive)
BT-549
  GI50: > 100 µM (inactive)
HOP-62
  GI50: 4.34 µM (inactive)
K562
  GI50: > 100 µM (inactive)
KM12
  GI50: > 100 µM (inactive)
HT-29
  GI50: > 100 µM (inactive)
Malme-3M
  GI50: > 100 µM (inactive)
LOX IMVI
  GI50: > 100 µM (inactive)
MOLT-4
  GI50: > 100 µM (inactive)
COLO 205
  GI50: > 100 µM (inactive)
786-0
  GI50: > 100 µM (inactive)
NCI/ADR-RES
  GI50: > 100 µM (inactive)
HCC 2998
  GI50: > 100 µM (inactive)
UACC-257
  GI50: > 100 µM (inactive)
PC-3
  GI50: > 100 µM (inactive)
NCI-H460
  GI50: > 100 µM (inactive)
SR
  GI50: > 100 µM (inactive)

## COC(=O)/C=C1\SC2(O\C1=N/c1ccccc1)C1CC3CC(C1)CC2C3 (configuration not stated)
TK-10
  GI50: > 100 µM (inactive)
A498
  GI50: > 100 µM (inactive)
UACC-62
  GI50: > 100 µM (inactive)
OVCAR-3
  GI50: > 100 µM (inactive)
UO-31
  GI50: > 100 µM (inactive)
CCRF-CEM
  GI50: > 100 µM (inactive)
RXF 393
  GI50: > 100 µM (inactive)
SK-MEL-5
  GI50: > 100 µM (inactive)
NCI-H522
  GI50: > 100 µM (inactive)
MCF7
  GI50: > 100 µM (inactive)
SNB-75
  GI50: > 100 µM (inactive)
SF-539
  GI50: > 100 µM (inactive)
IGROV-1
  GI50: > 100 µM (inactive)
SK-MEL-2
  GI50: > 100 µM (inactive)
U-251
  GI50: > 100 µM (inactive)
RPMI-8226
  GI50: > 100 µM (inactive)
SW-620
  GI50: > 100 µM (inactive)
SNB-19
  GI50: > 100 µM (inactive)
SK-OV-3
  GI50: > 100 µM (inactive)
MDA-N
  GI50: > 100 µM (inactive)
A549
  GI50: > 100 µM (inactive)
SF-295
  GI50: > 100 µM (inactive)
HCT-116
  GI50: > 100 µM (inactive)
MDA-MB-231
  GI50: > 100 µM (inactive)
DU-145
  GI50: > 10 µM (inactive)
EKVX
  GI50: > 100 µM (inactive)
OVCAR-8
  GI50: > 100 µM (inactive)
MDA-MB-435
  GI50: > 100 µM (inactive)
NCI-H226
  GI50: > 100 µM (inactive)
ACHN
  GI50: > 100 µM (inactive)
HOP-92
  GI50: > 100 µM (inactive)
Hs-578T
  GI50: > 100 µM (inactive)
HL-60
  GI50: > 100 µM (inactive)
SK-MEL-28
  GI50: > 100 µM (inactive)
HCT-15
  GI50: > 100 µM
CAKI-1
  GI50: > 100 µM (inactive)
SN12C
  GI50: > 100 µM (inactive)
OVCAR-5
  GI50: > 100 µM (inactive)
BT-549
  GI50: > 100 µM (inactive)
HOP-62
  GI50: > 100 µM (inactive)
K562
  GI50: > 100 µM (inactive)
KM12
  GI50: > 100 µM (inactive)
HT-29
  GI50: > 100 µM (inactive)
OVCAR-4
  GI50: 36.1 µM (inactive)
LOX IMVI
  GI50: > 100 µM (inactive)
MOLT-4
  GI50: > 100 µM (inactive)
NCI/ADR-RES
  GI50: > 100 µM (inactive)
UACC-257
  GI50: > 100 µM (inactive)
PC-3
  GI50: > 100 µM (inactive)
NCI-H460
  GI50: > 100 µM (inactive)
SR
  GI50: > 100 µM (inactive)
